From patent US8221736B2, “Semiochemical” (Rothamsted Research Limited, priority 1999, dated 2012)
Marks after values point to notes of the source that are not given here.

Legend:
[1] = test system: aphid parasitoid Aphidius ervi; assay: Wind tunnel single choice test of A. ervi with synthetic compounds on filter paper; assay type: in vivo; details: 10 μg on filter paper, hexane control 26.7
From the text: Since semiochemicals acting as repellents or inhibitors of host attractancy for herbivorous insects are often involved in predation or parasitism, the activity of cis-jasmone was also investigated at higher trophic levels. […] These experiments indicate a behavioural role for cis-jasmone in influencing interactions between plants, herbivorous insects and their predators and parasitoids. Naive female A. ervi were flown in a wind tunnel, as described in J. Chem. Ecol. 16, 381-396 (1996) (Poppy et al.). The parasitoids were released 25 cm downwind (single choice tests) or 40 cm downwind (dual choice test) of the target, which was either a plant or a synthetic compound (10 μg in 10 μl hexane) placed on a 2×1 cm strip of filter paper (Whatman No. 1) surrounded by a ring of green crêpe paper. The proportions of parasitoids responding with an oriented flight to the synthetic chemicals were calculated each day on 3 separate days. These values were then subjected to a logit transformation to normalize the data before being analysed by ANOVA followed by Tukey post-hoc tests. The number of parasitoids orienting upwind to the single plant target were recorded and subjected to a χ^2 contingency test (Pearson method on Genstat—see Genstat 5 Committee. Genstat 5 Reference Manual, Release 3 (Clarendon Press, Oxford, 1993)) to determine whether an orienting response was linked to the type of plant treatment. The numbers orienting to each plant in the dual choice test were analysed by a χ^2 to determine whether one plant was more attractive than the other.

[2] = test system: grain aphid, Sitobion avenae; details: J. Chem. Ecol. 20 (1994), Pettersson et al., Hardie et al.; cited from earlier work
[3] = test system: black bean aphid, Aphis fabae; details: J. Chem. Ecol. 20 (1994), Pettersson et al., Hardie et al.; cited from earlier work
[4] = test system: D251 sequence in Vicia faba plants; assay: Differential display and northern blot of gene-specific sequence D251; assay type: in vivo; details: northern blot, versus air
Protocol: Total RNA was isolated from stem or leaf tissue of plants exposed to air, methyl jasmonate or cis-jasmone. 10 μg RNA per sample was loaded and separated on a formaldehyde gel (Panel A). The samples were then transferred to a nylon membrane and probed with the D251 sequence (Panel B). Lane 1=air treatment (control); lane 2=cis-jasmone treatment; lane 3=methyl jasmonate treatment. In the case of RNA isolated from leaf tissue, only cis-jasmone treatment results in upregulation. In order to determine if cis-jasmone was capable of inducing alterations in plant gene expression, the sensitive technique of differential display was carried out on RNA extracted from plants which had been exposed to air, methyl jasmonate or cis-jasmone. […] To confirm this observation, bands of interest were recovered by excision from the dried gel and re-amplified with the appropriate pair of oligonucleotide primers. The resulting PCR products were cloned and sequenced to confirm the homogeneous nature of the amplified product. These sequences were then used to probe RNA isolated from control or treated V. faba plants. […] It is important to note that the nature of the differential display technique generates short gene-specific probes, containing mainly 3′ untranslated regions of transcribed sequences, and therefore the functional part of the differentially expressed gene is unknown. Thus, using differential display and confirmatory northern blotting, we have shown that methyl jasmonate and cis-jasmone have apparently distinct effects on plant gene expression. […] Thus, the two compounds have distinct effect on plant gene expression and the response to these signalling compounds may be tissue-specific.

[5] = test system: broad bean, V. faba (cv The Sutton); assay: Induction of volatile release by bean plants (air entrainment, GC/GC-MS); assay type: in vivo, Vicia faba; details: 24 hour exposure at 100 μg/l in air; 48 hour entrainments
Protocol: A possible role for the compound as an airborne plant signal was investigated using the broad bean, V. faba (cv The Sutton). Plants were kept for 24 hours in clean air or in air incorporating cis-jasmone at 100 μg/l; subsequently, samples of volatiles released by the plants were obtained by entrainment over 4 periods of 48 hours, i.e. up to 192 hours after the end of the treatment. The cis-jasmone itself was undetectable after 48 hours. […] There was also, from some replicates, enhancement of (E,E)-α-farnesene, (−)-β-caryophyllene and (E)-4,8-dimethyl-1,3,7-nonatriene. These compounds have all been implicated in herbivorous insect-induced production and increased parasitoid foraging. The nonatriene can also be produced innately by plants imitating damage for defence against herbivores and which are thus attractive to parasitoids.
Bean plants, V. faba (cv The Sutton) were grown under standard glasshouse conditions until the 2-4 leaf stage when they were rinsed free of soil and transplanted into baked glass jars containing washed sand, with 3 plants per jar. These were left for 1-2 days to acclimatize. Plants to be treated (three jars of three plants each) were sealed in a 25 l glass tank for 24 hours with either cis-jasmone or methyl jasmonate (2.5 mg) applied to a piece of filter paper (Whatman No. 1) placed on the floor of the tank. […]

C=C/C(C)=C/CC=C(C)C [(E)-β-ocimene]
% showing oriented flight [1]: 48.8^a %

C=C/C(C)=C/C/C=C(\C)CCC=C(C)C [(E,E)-α-farnesene]
% showing oriented flight [1]: 60.9^a %

COC(=O)c1ccccc1O [Methyl salicylate]
behavioural effect on cereal aphids including the grain aphid [2]: repelling
behavioural effect on black bean aphid [3]: repelling

CC/C=C\CC1C(=O)CCC1CC(=O)OC (stereo not shown) [methyl jasmonate, reference compound]
expression of D251 sequence in leaf tissue ([4]; RNA from leaf tissue of plants exposed to vapour): only cis-jasmone brought about an increase
expression of D251 sequence in stem tissue ([4]; RNA from stem tissue of plants exposed to vapour): upregulated to a similar level
effect on levels of (E)-β-ocimene released [5]: did not significantly increase
